The NIST ThermoML archive (doi:10.1021/acs.jced.5b00992)
Numbers after ± are expanded uncertainties.

How the values were obtained:
[1] = wn = mass fraction of the nth substance listed; conditions: 313.15 K, 88.4 kPa, Liquid; for viscosity: Capillary tube (Ostwald / Ubbelohde) method; for mass density: Pycnometric method
[2] = refractive index (Na D-line) (dimensionless); wn = mass fraction of the nth substance listed; conditions: 313.15 K, 88.4 kPa, Liquid, Standard Abbe refractometry

| SMILES | viscosity ([1]; w1 = 0.129) | mass density ([1]; w1 = 0.129) | refractive index ([2]; w1 = 0.129) | viscosity ([1]; w1 = 0.3237) | mass density ([1]; w1 = 0.3237) | refractive index ([2]; w1 = 0.3237) |
| --- | --- | --- | --- | --- | --- | --- |
| O=S(=O)([O-])[O-].[K+].[K+] [potassium sulfate] + O | 0.8181 ± 0.082 mPa·s | 1097.5 ± 2.3 kg/m3 | 1.3466 ± 0.0006 | – | – | – |
| O=S(=O)([O-])[O-].[Na+].[Na+] [sodium sulfate] + O | – | – | – | 2.871 ± 0.29 mPa·s | 1317.6 ± 3.7 kg/m3 | 1.3774 ± 0.0006 |
